In general, melting point refers to the temperature of the solid-liquid transition.

The compound `CC1Oc2ccc(Cl)cc2NC1=O` (stereo unspecified) registered a melting point of 171 to 173 °C. The same measure for `Oc1cccc(-n2cncn2)c1`: 181 to 183 °C; for `CN1C(=O)CCC(C(N)=O)C1c1cccc(Cl)c1` (stereo unspecified): 215 to 217 °C; for `Nc1ccc(N)c(S(=O)(=O)Nc2ccccc2Cl)c1`: 213 to 215 °C.

Turning to `Cc1nc(-c2ccc(Cl)nc2)[nH]c(=O)c1C`, the melting point was 263 to 265 °C. The same measure for `NC(=O)CCNC(=O)OCc1ccccc1`: 164 to 166 °C; for `CC1CC(C)CN(S(=O)(=O)Cl)C1` (stereo unspecified): 41 to 43 °C.

For `COc1ccc(C(=O)O)cc1S(=O)(=O)N(C)C`, the melting point lay in the range of 149 to 151 °C. The same measure for `CCCc1c(C(=O)O)nnn1-c1cccc(Cl)c1`: 129 to 131 °C; for `N#Cc1ccc(N2CCOC2=O)nc1`: 186 to 188 °C.

`Fc1ccc(-c2cc[nH]n2)cc1` showed a melting point of 96 to 98 °C.

`Cc1sc2ncn(CC(=O)O)c(=O)c2c1C` had a melting point of 229 to 231 °C. The same measure for `CC(C)(C)c1ccc(OCC(=O)O)c(C(C)(C)C)c1`: less than 17 °C; for `Cc1cccc(-n2nnc(C(=O)O)c2C)c1`: 157 to 159 °C; for `O=C(O)c1ccc(Cl)cc1-n1cccc1`: 142 to 144 °C. Under `O=S(=O)(Cl)Cc1cc(-c2ccc(F)cc2)no1` stands 108 to 110 °C; under `O=C(O)C1=NN(Cc2ccccc2)C(=O)CC1`, 179 to 181 °C. Regarding `CN1CCN(C(=O)C2CNc3ccccc3O2)CC1` (stereo unspecified), the melting point is 132 to 134 °C. Under `Cc1ccc(C)c(OCC(=O)NN)c1` stands 153 to 155 °C; under `Cc1ccc(C(C)C)c(Oc2ccc(C=O)cc2[N+](=O)[O-])c1`, 109 to 111 °C. `CN1CC(=O)Nc2cnccc21` registered a melting point of 274 to 276 °C.

As to `COc1cc(-c2nnc(CCl)o2)cc(OC)c1OC`, the melting point fell in the range of 121 to 123 °C. `COc1ccc(Br)cc1Cl` had a melting point of 69 to 71 °C.

Compound `O=C(O)CC(Br)C(=O)c1ccccc1` (stereo unspecified) yielded a melting point of 128 to 130 °C. Under `COc1ccccc1NC(=O)Cc1noc(CCl)n1` stands 95 to 97 °C; under `CCN(CC)S(=O)(=O)c1ccc(=O)n(CC(=O)O)c1`, 182 to 189 °C.

In the case of `O=C1c2ccccc2C(=O)N1c1cnn(Cc2ccccc2)c1`, the melting point lay within 149 to 151 °C.

In the case of `COCc1cc([N+](=O)[O-])ccc1N`, the melting point is 83 to 85 °C. Under `O=C(O)CSc1ccc(F)c(F)c1` stands 62 to 64 °C; under `O=C(O)c1ccc2[nH]c(-c3ccc(Cl)cc3)nc2c1`, 319 to 321 °C. Under `O=C(Nc1ccc(F)cc1)c1ccc2c(c1)OCO2` stands 186 to 188 °C; under `NC(=O)NC(CC(=O)O)c1ccc(Cl)cc1` (stereo unspecified), 198 to 200 °C. Under `CC1(c2ccc(Br)cc2)NC(=O)N(CC(=O)O)C1=O` (stereo unspecified) stands 247 to 249 °C; under `COc1cccc(-c2c[nH]cc2C(=O)O)c1`, 143 to 145 °C; under `Clc1ccncc1Cl`, 22 to 23 °C.

Compound `NC(=O)c1cccc(C(N)=S)c1` gave a melting point of 210 to 212 °C. The same measure for `CC1(C)CCC(N)(C(N)=O)CC1`: 149 to 151 °C; for `Cc1noc(C)c1S(=O)(=O)N1CCC(C(=O)O)CC1`: 210 to 215 °C. Under `COC(=O)c1ccc(-c2nc(C)cs2)cc1` stands 81 to 83 °C; under `Cc1ccc(-n2nc(Br)cc2C(=O)O)cc1`, 219 to 221 °C. In the case of `COC(=O)c1cc(N)ccc1C`, the melting point was 38 to 40 °C. Consider `NC(=S)Nc1cc(F)cc(F)c1`, for which the melting point fell in the range of 149 to 151 °C. The same measure for `Cc1c(Cl)cccc1-n1ccnc1SCC(=O)O`: 144 to 146 °C. The same measure for `NC(CCl)=NO`: 83 to 87 °C; for `Sc1nnc(-c2cccs2)n1CC1CCCO1` (stereo unspecified): 107 to 108 °C. The same measure for `CCOc1cc(C=O)ccc1OCCOc1ccc(F)cc1`: 85 to 87 °C.

The values are drawn from a melting point compilation (Tetko et al.).
